From PubChem BioAssay AID248 (DTP/NCI, 2004)
Values joined by “and” are separate entries in the source; they are usually repeats but may differ in a detail not shown here. Equal values may be shown once. Inconclusive results and toxic doses are left out. Rule as the data show it: active = T/C of 150% or more; inactive = T/C below 125%.

System: L1210 leukemia ip in BDF1 mice, survival T/C
Assay: NCI In Vivo Anticancer Drug Screen. Data for tumor model L1210 Leukemia (intraperitoneal) in B6D2F1 (BDF1) mice
Details: higher = longer survival
Summary of the method: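 Antitumor effect is assessed in tumor-bearing animals. Survival in the compound arm is compared with a vehicle-dosed control arm and expressed as their quotient.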

Measured: T/C

O=P1(N(CCCl)CCCl)NCCCO1 (configuration not stated)
inactive: endpoint: mean survival time, dose: 0.9 mg/kg/injection, schedule: Q01DX009 (ip), vehicle: saline 99 % of control and 100 % of control | endpoint: mean survival time, dose: 1.0 mg/kg/injection, schedule: Q01DX Z (ip), vehicle: methylcellulose (MC) 93 % of control | endpoint: mean survival time, dose: 1.0 mg/kg/injection, schedule: Q01DX Z (oral), vehicle: saline 93 % of control | endpoint: mean survival time, dose: 1.0 mg/kg/injection, schedule: Q07DX Z (ip), vehicle: saline 103 % of control | endpoint: mean survival time, dose: 1.8 mg/kg/injection, schedule: Q01DX009 (ip), vehicle: saline 94 % of control | endpoint: mean survival time, dose: 2.5 mg/kg/injection, schedule: Q07DX Z (ip), vehicle: saline 97 % of control | endpoint: mean survival time, dose: 3.2 mg/kg/injection, schedule: Q01DX001 (ip), vehicle: saline 95 % of control | endpoint: mean survival time, dose: 3.5 mg/kg/injection, schedule: Q01DX009 (ip), vehicle: saline 100 % of control and 104 % of control | endpoint: mean survival time, dose: 3.5 mg/kg/injection, schedule: Q03HX032 (ip), vehicle: saline 110 % of control | endpoint: mean survival time, dose: 3.5 mg/kg/injection, schedule: Q## X032 (ip), vehicle: saline 110 % of control | endpoint: mean survival time, dose: 4.3 mg/kg/injection, schedule: Q01DX Z (ip), vehicle: saline 98 % of control | endpoint: mean survival time, dose: 5.0 mg/kg/injection, schedule: Q01DX Z (ip), vehicle: methylcellulose (MC) 105 % of control | endpoint: mean survival time, dose: 5.0 mg/kg/injection, schedule: Q07DX Z (ip), vehicle: saline 97 % of control | endpoint: mean survival time, dose: 5.36 mg/kg/injection, schedule: Q03HX032 (ip), vehicle: saline 102 % of control | endpoint: mean survival time, dose: 5.36 mg/kg/injection, schedule: Q## X032 (ip), vehicle: saline 102 % of control | endpoint: mean survival time, dose: 5.6 mg/kg/injection, schedule: Q13HX018 (ip), vehicle: saline 98 % of control | endpoint: mean survival time, dose: 6.0 mg/kg/injection, schedule: Q01DX Z (oral), vehicle: saline 108 % of control | endpoint: mean survival time, dose: 6.0 mg/kg/injection, schedule: Q03DX Z (ip), vehicle: saline 109 % of control | endpoint: mean survival time, dose: 6.25 mg/kg/injection, schedule: Q01DX009 (ip), vehicle: saline 104 % of control and 107 % of control | endpoint: mean survival time, dose: 6.25 mg/kg/injection, schedule: Q01DX Z (ip), vehicle: saline 102 % of control | endpoint: mean survival time, dose: 6.3 mg/kg/injection, schedule: Q01DX001 (ip), vehicle: saline 94 % of control | endpoint: mean survival time, dose: 7.13 mg/kg/injection, schedule: Q01DX Z (ip), vehicle: carboxymethylcellulose (CMC) 109 % of control | endpoint: mean survival time, dose: 7.5 mg/kg/injection, schedule: Q01DX009 (ip), vehicle: saline 110 % of control | endpoint: mean survival time, dose: 7.5 mg/kg/injection, schedule: Q01DX Z (ip), vehicle: saline 110 % of control | endpoint: mean survival time, dose: 7.5 mg/kg/injection, schedule: Q04DX002 (ip), vehicle: saline 94 % of control and 111 % of control | endpoint: mean survival time, dose: 8.5 mg/kg/injection, schedule: Q01DX Z (ip), vehicle: saline 110 % of control | endpoint: mean survival time, dose: 9.4 mg/kg/injection, schedule: Q01DX001 (ip), vehicle: water 103 % of control | endpoint: mean survival time, dose: 9.9 mg/kg/injection, schedule: Q01DX010 (ip), vehicle: saline 104 % of control | endpoint: mean survival time, dose: 10.0 mg/kg/injection, schedule: Q01DX Z (ip), vehicle: methylcellulose (MC) 104 % of control | endpoint: mean survival time, dose: 10.0 mg/kg/injection, schedule: Q07DX Z (ip), vehicle: saline 102 % of control | endpoint: mean survival time, dose: 11.25 mg/kg/injection, schedule: Q01DX001 (ip), vehicle: saline 98 % of control and 105 % of control | endpoint: mean survival time, dose: 11.3 mg/kg/injection, schedule: Q01DX Z (ip), vehicle: saline 113 % of control | endpoint: mean survival time, dose: 11.3 mg/kg/injection, schedule: Q## X Z (ip), vehicle: saline 110 % of control | endpoint: mean survival time, dose: 12.0 mg/kg/injection, schedule: Q01DX001 (ip), vehicle: saline 94 % of control and 111 % of control | endpoint: mean survival time, dose: 12.0 mg/kg/injection, schedule: Q01DX Z (im), vehicle: saline 97 % of control | endpoint: mean survival time, dose: 12.0 mg/kg/injection, schedule: Q01DX Z (oral), vehicle: saline 109 % of control | endpoint: mean survival time, dose: 12.0 mg/kg/injection, schedule: Q02DX010 (ip), vehicle: saline 111 % of control | endpoint: mean survival time, dose: 12.0 mg/kg/injection, schedule: Q03DX Z (ip), vehicle: saline 107 % of control | endpoint: mean survival time, dose: 12.5 mg/kg/injection, schedule: Q01DX001 (ip), vehicle: saline 96 % of control | endpoint: mean survival time, dose: 12.5 mg/kg/injection, schedule: Q01DX009 (ip), vehicle: saline 110 % of control | endpoint: mean survival time, dose: 12.5 mg/kg/injection, schedule: Q01DX Z (ip), vehicle: carboxymethylcellulose (CMC) 101 % of control | endpoint: mean survival time, dose: 12.6 mg/kg/injection, schedule: Q01DX009 (ip), vehicle: saline 110 % of control | endpoint: mean survival time, dose: 12.6 mg/kg/injection, schedule: Q01DX Z (ip), vehicle: saline 110 % of control | endpoint: mean survival time, dose: 15.0 mg/kg/injection, schedule: Q01DX Z (ip), vehicle: methylcellulose (MC) 100 % of control | endpoint: mean survival time, dose: 15.0 mg/kg/injection, schedule: Q04DX002 (ip), vehicle: saline 103 % of control | endpoint: mean survival time, dose: 15.0 mg/kg/injection, schedule: Q07DX Z (ip), vehicle: saline 107 % of control | endpoint: mean survival time, dose: 18.75 mg/kg/injection, schedule: Q01DX001 (ip), vehicle: water 103 % of control | endpoint: mean survival time, dose: 18.76 mg/kg/injection, schedule: Q02DX010 (ip), vehicle: saline 112 % of control | endpoint: mean survival time, dose: 19.0 mg/kg/injection, schedule: Q02DX010 (ip), vehicle: saline 110 % of control | endpoint: mean survival time, dose: 20.0 mg/kg/injection, schedule: Q01DX Z (ip), vehicle: methylcellulose (MC) 98 % of control | endpoint: mean survival time, dose: 22.5 mg/kg/injection, schedule: Q01DX001 (ip), vehicle: saline 106 % of control and 109 % of control | endpoint: mean survival time, dose: 22.5 mg/kg/injection, schedule: Q## X Z (ip), vehicle: saline 105 % of control | endpoint: mean survival time, dose: 25.0 mg/kg/injection, schedule: Q01DX006 (iv), vehicle: saline 103 % of control | endpoint: mean survival time, dose: 25.0 mg/kg/injection, schedule: Q01DX Z (im), vehicle: saline 113 % of control | endpoint: mean survival time, dose: 25.0 mg/kg/injection, schedule: Q04DX003 (ip), vehicle: saline 104 % of control | endpoint: mean survival time, dose: 28.5 mg/kg/injection, schedule: Q01DX Z (ip), vehicle: carboxymethylcellulose (CMC) 114 % of control | endpoint: mean survival time, dose: 37.0 mg/kg/injection, schedule: Q01DX001 (ip), vehicle: water 114 % of control | endpoint: mean survival time, dose: 37.5 mg/kg/injection, schedule: Q01DX001 (ip), vehicle: saline with Tween-80 112 % of control | endpoint: mean survival time, dose: 37.5 mg/kg/injection, schedule: Q01DX001 (ip), vehicle: water 114 % of control | endpoint: mean survival time, dose: 45.0 mg/kg/injection, schedule: Q13HX018 (ip), vehicle: saline 107 % of control | endpoint: mean survival time, dose: 45.0 mg/kg/injection, schedule: Q## X Z (ip), vehicle: saline 105 % of control | endpoint: mean survival time, dose: 50.0 mg/kg/injection, schedule: Q01DX Z (ip), vehicle: methylcellulose (MC) 112 % of control | endpoint: mean survival time, dose: 67.5 mg/kg/injection, schedule: Q## X006 (ip), vehicle: saline 100 % of control | endpoint: mean survival time, dose: 86.0 mg/kg/injection, schedule: Q01DX001 (ip), vehicle: saline 112 % of control | endpoint: mean survival time, dose: 90.0 mg/kg/injection, schedule: Q01DX009 (ip), vehicle: saline 107 % of control | endpoint: mean survival time, dose: 90.0 mg/kg/injection, schedule: Q01DX Z (ip), vehicle: saline 98 % of control | endpoint: mean survival time, dose: 90.0 mg/kg/injection, schedule: Q02DX010 (ip), vehicle: carboxymethylcellulose (CMC) 105 % of control | endpoint: mean survival time, dose: 97.0 mg/kg/injection, schedule: Q02DX010 (ip), vehicle: carboxymethylcellulose (CMC) 107 % of control | endpoint: mean survival time, dose: 97.0 mg/kg/injection, schedule: Q02DX010 (ip), vehicle: other 98 % of control | endpoint: mean survival time, dose: 100.0 mg/kg/injection, schedule: Q01DX Z (ip), vehicle: methylcellulose (MC) 108 % of control | endpoint: mean survival time, dose: 100.0 mg/kg/injection, schedule: Q01DX Z (oral), vehicle: saline 107 % of control | endpoint: mean survival time, dose: 135.0 mg/kg/injection, schedule: Q02DX010 (ip), vehicle: saline 111 % of control | endpoint: mean survival time, dose: 180.0 mg/kg/injection, schedule: Q01DX009 (ip), vehicle: saline 96 % of control | endpoint: mean survival time, dose: 180.0 mg/kg/injection, schedule: Q01DX010 (ip), vehicle: saline 102 % of control | endpoint: mean survival time, dose: 200.0 mg/kg/injection, schedule: Q01DX009 (ip), vehicle: saline 93 % of control | endpoint: mean survival time, dose: 200.0 mg/kg/injection, schedule: Q01DX Z (ip), vehicle: saline 100 % of control | endpoint: mean survival time, dose: 320.0 mg/kg/injection, schedule: Q04DX003 (ip), vehicle: saline 111 % of control | endpoint: mean survival time, dose: 360.0 mg/kg/injection, schedule: Q01DX001 (ip), vehicle: saline 113 % of control | endpoint: mean survival time, dose: 400.0 mg/kg/injection, schedule: Q04DX002 (ip), vehicle: saline 100 % of control | endpoint: mean survival time, dose: 468.0 mg/kg/injection, schedule: Q04DX002 (ip), vehicle: saline 111 % of control | endpoint: mean survival time, dose: 900.0 mg/kg/injection, schedule: Q01DX001 (ip), vehicle: saline 102 % of control | endpoint: median survival time, dose: 5.0 mg/kg/injection, schedule: Q01DX009 (ip), vehicle: saline 101 % of control and 110 % of control | endpoint: median survival time, dose: 10.0 mg/kg/injection, schedule: Q01DX001 (ip), vehicle: saline 99 % of control and 100 % of control | endpoint: median survival time, dose: 20.0 mg/kg/injection, schedule: Q01DX001 (ip), vehicle: saline 106 % of control | endpoint: median survival time, dose: 50.0 mg/kg/injection, schedule: Q08DX003 (ip), vehicle: saline 95 % of control and 97 % of control | endpoint: median survival time, dose: 90.0 mg/kg/injection, schedule: Q01DX009 (ip), vehicle: saline 105 % of control and 112 % of control | endpoint: median survival time, dose: 180.0 mg/kg/injection, schedule: Q01DX009 (ip), vehicle: saline 93 % of control
